Assay results as given in PMC6977461 (Chemical Science, 2019).

Tests used:
mouse GLP-1 receptor [1] = molecular target: T1, mouse GLP-1 receptor (Mus musculus, UniProt O35659); assay: radioligand binding assay, [125I]GLP-1(7-36), βTC6 cell membrane homogenates
T1 construct: βTC6 cells which express GLP-1R endogenously; host or cells: βTC6 cells
T1 sequence (O35659 22-463): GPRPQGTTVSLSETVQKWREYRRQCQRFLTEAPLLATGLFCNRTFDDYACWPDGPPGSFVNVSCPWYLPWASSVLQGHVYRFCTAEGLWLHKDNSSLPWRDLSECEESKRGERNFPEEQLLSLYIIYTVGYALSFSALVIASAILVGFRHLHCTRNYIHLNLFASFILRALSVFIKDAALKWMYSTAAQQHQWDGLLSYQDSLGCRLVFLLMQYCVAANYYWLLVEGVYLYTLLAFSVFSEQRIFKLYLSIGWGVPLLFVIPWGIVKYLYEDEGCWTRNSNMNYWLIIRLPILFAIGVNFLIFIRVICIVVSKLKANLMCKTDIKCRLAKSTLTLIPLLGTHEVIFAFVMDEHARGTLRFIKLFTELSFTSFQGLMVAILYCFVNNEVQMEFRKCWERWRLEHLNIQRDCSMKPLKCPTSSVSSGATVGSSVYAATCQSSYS
Description: In vitro pharmacology: Affinity (IC50)
and 1% BSA. […] Following
incubation, the samples are filtered rapidly under vacuum through glass fiber filters (GF/B, Packard)
presoaked with 0.3% PEI and rinsed several times with an ice-cold buffer containing 50 mM Tris-HCl
and 500 mM NaCl using a 96-sample cell harvester (Unifilter, Packard). The filters are dried then
counted for radioactivity in a scintillation counter (Topcount, Packard) using a scintillation cocktail
(Microscint 0, Packard). The results are expressed as a percent inhibition of the control radioligand
at several concentrations to obtain a competition curve from which its IC50 is calculated using

[2] = mouse plasma degradation assay (Methods MP1-MP3); format: in vitro ADME; conditions: mouse plasma diluted 1/1 with PBS; mouse plasma/PBS pH 7.4 (1/1), 5 µM, 37 °C, acetonitrile quench, LC-MS extracted ion chromatogram; MP1 for 2-8, MP2 for 9-11, MP3 for 12-14; mean, n = 3; read-out: Mouse plasma t1/2 (converted)
Description: The oligomer was then diluted 1/50 with a solution of plasma/PBS pH 7.4 (1/1) to afford a final concentration of 5μM and incubated at 37°C. […] (t = 0 min was determined using the reaction without plasma). The samples were frozen at -80°C before analysis. […] The supernatant was analyzed by LC-MS. The time course of oligomer degradation was determined by integrating the area of the peak in the extracted ion chromatogram. […] The oligomer was then diluted 1/50 with a solution of plasma/PBS pH 7.4 (1/1) to afford a final concentration of 5μM and incubated at 37°C. […] The oligomer was then diluted 1/50 with a solution of plasma/PBS pH 7.4 (1/1) to afford a final concentration of 5μM and incubated at 37°C. […] Animals. […] A standard chow diet (RM1 (E) 801492, SDS) and tap water were provided ad libitum. All animal protocols done by Physiogenex S.A.S were reviewed and approved by the local (Comité […] national ([…]

mouse GLP-1 receptor [3] = molecular target: T1, mouse GLP-1 receptor; assay: cAMP production in βTC6 cells expressing GLP-1R endogenously (Method C2); format: cell-based; conditions: for Potency (%), Table S1: from EC50 in βTC6 cAMP assay, footnote: compare to GLP-1-NH2 (2); for EC50: read-out: EC50 (GLP-1R potency), Table S1; for loss in potency relative to 3 (fold): figures for 6-8 match the βTC6 EC50 values of Table S1
Description: (§1)  HEK-293T cells (Multispan inc., lot#.DC1267-062017) were suspended in cell culture media
(§2) (DMEM 1X + GlutaMAX (Gibco 31966-021)) complemented with FBS 10% (Sigma Aldrich
(§3)  βTC6 cells were suspended in HBSS buffer (Invitrogen) complemented with 20 mM HEPES (pH
(§4) In vitro pharmacology on HEK-293T cells (EC50: Method C1)
(§5) cells (Multispan inc., lot#.DC1267-062017) was determined by measuring their effects on cAMP
(§6) production using the HTRF detection method (performed by UREkA SARL). The cells were distributed
(§7) in 384-well microplates at a density of 1.0x10^4 cells/well. Stock solutions of the test compounds or the
(§8) reference agonist were prepared at a concentration of 1 mM in DMSO. Then, compounds to be tested
(§9) were diluted in cell culture media and transferred to the plate containing the cells to reach final assay

GLP-1R = GLP-1R (Homo sapiens, UniProt P43220); assay: cAMP production functional assay in HEK293 cells transfected with GLP-1R (Method C1); format: cell-based; parameters: host or cells: HEK-293T; conditions: for EC50: HEK-293T cells exogenously expressing human GLP-1R, cAMP by HTRF, 10 min at 37 °C, Method C1, mean, n = 3 (2: n = 6), read-out: EC50 (GLP-1R potency); for Potency (%), percentage of potency compared to GLP-1-NH2: from EC50 in HEK293 GLP-1R cAMP assay
Chain of GLP-1R (P43220 24-463): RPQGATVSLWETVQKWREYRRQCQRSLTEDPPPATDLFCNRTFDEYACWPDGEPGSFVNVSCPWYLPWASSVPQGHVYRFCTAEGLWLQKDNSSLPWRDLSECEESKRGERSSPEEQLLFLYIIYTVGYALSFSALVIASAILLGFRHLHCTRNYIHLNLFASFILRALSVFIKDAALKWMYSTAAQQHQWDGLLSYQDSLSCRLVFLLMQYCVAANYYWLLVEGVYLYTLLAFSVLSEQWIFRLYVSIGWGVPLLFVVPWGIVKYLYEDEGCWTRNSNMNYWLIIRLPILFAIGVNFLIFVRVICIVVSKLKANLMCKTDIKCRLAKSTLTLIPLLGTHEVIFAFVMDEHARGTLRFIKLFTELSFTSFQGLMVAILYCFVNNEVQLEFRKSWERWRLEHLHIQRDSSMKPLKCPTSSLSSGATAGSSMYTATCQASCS
Description: as §1, §2, §3, §4, §5, §6, §7, §8, §9

CC[C@H](C)[C@H](NC(=O)[C@H](Cc1ccccc1)NC(=O)[C@H](CCC(=O)O)NC(=O)[C@H](CCCCN)NC(=O)[C@H](C)NC(=O)[C@H](C)NC(=O)[C@H](CCC(N)=O)NC(=O)CNC(=O)[C@H](CCC(=O)O)NC(=O)[C@H](CC(C)C)NC(=O)[C@H](Cc1ccc(O)cc1)NC(=O)[C@H](CO)NC(=O)[C@H](CO)NC(=O)[C@@H](NC(=O)[C@H](CC(=O)O)NC(=O)[C@H](CO)NC(=O)[C@@H](NC(=O)[C@H](Cc1ccccc1)NC(=O)[C@@H](NC(=O)CNC(=O)[C@H](CCC(=O)O)NC(=O)NC[C@H](C)NC(=O)[C@@H](N)Cc1c[nH]cn1)[C@@H](C)O)[C@@H](C)O)C(C)C)C(=O)N[C@@H](C)C(=O)N[C@@H](Cc1c[nH]c2ccccc12)C(=O)N[C@@H](CC(C)C)C(=O)N[C@H](C(=O)N[C@@H](CCCCN)C(=O)NCC(=O)N[C@@H](CCCNC(=N)N)C(=O)NCC(N)=O)C(C)C [compound 3]
IC50 (mouse GLP-1 receptor [1]): 32 nM
half-life at 5 µM [2]: 14.4 min
Potency (%), Table S1 (mouse GLP-1 receptor [3]): 70%
EC50 (mouse GLP-1 receptor [3]): 0.14 nM
EC50 (GLP-1R): 0.0027 nM
Potency (%), percentage of potency compared to GLP-1-NH2 (GLP-1R): 117%

CC[C@H](C)[C@H](NC(=O)[C@H](Cc1ccccc1)NC(=O)[C@H](CCC(=O)O)NC(=O)[C@H](CCCCN)NC(=O)[C@H](C)NC(=O)[C@H](C)NC(=O)[C@H](CCC(N)=O)NC(=O)CNC(=O)[C@H](CCC(=O)O)NC(=O)[C@H](CC(C)C)NC(=O)[C@H](Cc1ccc(O)cc1)NC(=O)[C@H](CO)NC(=O)[C@H](CO)NC(=O)[C@@H](NC(=O)[C@H](CC(=O)O)NC(=O)[C@H](CO)NC(=O)[C@@H](NC(=O)[C@H](Cc1ccccc1)NC(=O)[C@@H](NC(=O)CNC(=O)[C@H](CCC(=O)O)NC(=O)CC[C@H](C)NC(=O)[C@@H](N)Cc1c[nH]cn1)[C@@H](C)O)[C@@H](C)O)C(C)C)C(=O)N[C@@H](C)C(=O)N[C@@H](Cc1c[nH]c2ccccc12)C(=O)N[C@@H](CC(C)C)C(=O)N[C@H](C(=O)N[C@@H](CCCCN)C(=O)NCC(=O)N[C@@H](CCCNC(=N)N)C(=O)NCC(N)=O)C(C)C [compound 4]
half-life at 5 µM [2]: 13.8 min

CC[C@H](C)[C@H](NC(=O)[C@H](Cc1ccccc1)NC(=O)[C@H](CCC(=O)O)NC(=O)[C@H](CCCCN)NC(=O)[C@H](C)NC(=O)[C@H](C)NC(=O)[C@H](CCC(N)=O)NC(=O)CNC(=O)[C@H](CCC(=O)O)NC(=O)[C@H](CC(C)C)NC(=O)[C@H](Cc1ccc(O)cc1)NC(=O)[C@H](CO)NC(=O)[C@H](CO)NC(=O)[C@@H](NC(=O)[C@H](CC(=O)O)NC(=O)[C@H](CO)NC(=O)[C@@H](NC(=O)[C@H](Cc1ccccc1)NC(=O)[C@@H](NC(=O)CNC(=O)[C@H](CCC(=O)O)NC(=O)OC[C@H](C)NC(=O)[C@@H](N)Cc1c[nH]cn1)[C@@H](C)O)[C@@H](C)O)C(C)C)C(=O)N[C@@H](C)C(=O)N[C@@H](Cc1c[nH]c2ccccc12)C(=O)N[C@@H](CC(C)C)C(=O)N[C@H](C(=O)N[C@@H](CCCCN)C(=O)NCC(=O)N[C@@H](CCCNC(=N)N)C(=O)NCC(N)=O)C(C)C [compound 5]
half-life at 5 µM [2]: 12.6 min
Potency (%), Table S1 (mouse GLP-1 receptor [3]): 13%
EC50 (mouse GLP-1 receptor [3]): 0.8 nM

CC[C@H](C)[C@H](NC(=O)[C@H](Cc1ccccc1)NC(=O)[C@H](CCC(=O)O)NC(=O)[C@H](CCCCN)NC(=O)[C@H](C)NC(=O)[C@H](C)NC(=O)[C@H](CCC(N)=O)NC(=O)CNC(=O)[C@H](CCC(=O)O)NC(=O)[C@H](CC(C)C)NC(=O)[C@H](Cc1ccc(O)cc1)NC(=O)[C@H](CO)NC(=O)[C@H](CO)NC(=O)[C@@H](NC(=O)[C@H](CC(=O)O)NC(=O)[C@H](CO)NC(=O)[C@@H](NC(=O)[C@H](Cc1ccccc1)NC(=O)[C@@H](NC(=O)CNC(=O)[C@H](CCC(=O)O)NC(=O)NC(C)CNC(=O)[C@@H](N)Cc1c[nH]cn1)[C@@H](C)O)[C@@H](C)O)C(C)C)C(=O)N[C@@H](C)C(=O)N[C@@H](Cc1c[nH]c2ccccc12)C(=O)N[C@@H](CC(C)C)C(=O)N[C@H](C(=O)N[C@@H](CCCCN)C(=O)NCC(=O)N[C@@H](CCCNC(=N)N)C(=O)NCC(N)=O)C(C)C (stereo partly drawn) [compound 6]
half-life at 5 µM [2]: 22.2 min
loss in potency relative to 3 (fold) (mouse GLP-1 receptor [3]): 24 fold
Potency (%), Table S1 (mouse GLP-1 receptor [3]): 3%
EC50 (mouse GLP-1 receptor [3]): 3.4 nM
EC50 (GLP-1R): 0.012 nM
Potency (%), percentage of potency compared to GLP-1-NH2 (GLP-1R): 25%

CC[C@H](C)[C@H](NC(=O)[C@H](Cc1ccccc1)NC(=O)[C@H](CCC(=O)O)NC(=O)[C@H](CCCCN)NC(=O)[C@H](C)NC(=O)[C@H](C)NC(=O)[C@H](CCC(N)=O)NC(=O)CNC(=O)[C@H](CCC(=O)O)NC(=O)[C@H](CC(C)C)NC(=O)[C@H](Cc1ccc(O)cc1)NC(=O)[C@H](CO)NC(=O)[C@H](CO)NC(=O)[C@@H](NC(=O)[C@H](CC(=O)O)NC(=O)[C@H](CO)NC(=O)[C@@H](NC(=O)[C@H](Cc1ccccc1)NC(=O)[C@@H](NC(=O)CNC(=O)[C@H](CCC(=O)O)NC(=O)NCCNC(=O)[C@@H](N)Cc1c[nH]cn1)[C@@H](C)O)[C@@H](C)O)C(C)C)C(=O)N[C@@H](C)C(=O)N[C@@H](Cc1c[nH]c2ccccc12)C(=O)N[C@@H](CC(C)C)C(=O)N[C@H](C(=O)N[C@@H](CCCCN)C(=O)NCC(=O)N[C@@H](CCCNC(=N)N)C(=O)NCC(N)=O)C(C)C [compound 7]
half-life at 5 µM [2]: 13.2 min
loss in potency relative to 3 (fold) (mouse GLP-1 receptor [3]): 5 fold
Potency (%), Table S1 (mouse GLP-1 receptor [3]): 13%
EC50 (mouse GLP-1 receptor [3]): 0.8 nM
EC50 (GLP-1R): 0.0053 nM
Potency (%), percentage of potency compared to GLP-1-NH2 (GLP-1R): 59%

CC[C@H](C)[C@H](NC(=O)[C@H](Cc1ccccc1)NC(=O)[C@H](CCC(=O)O)NC(=O)[C@H](CCCCN)NC(=O)[C@H](C)NC(=O)[C@H](C)NC(=O)[C@H](CCC(N)=O)NC(=O)CNC(=O)[C@H](CCC(=O)O)NC(=O)[C@H](CC(C)C)NC(=O)[C@H](Cc1ccc(O)cc1)NC(=O)[C@H](CO)NC(=O)[C@H](CO)NC(=O)[C@@H](NC(=O)[C@H](CC(=O)O)NC(=O)[C@H](CO)NC(=O)[C@@H](NC(=O)[C@H](Cc1ccccc1)NC(=O)[C@@H](NC(=O)CNC(=O)[C@H](CCC(=O)O)NC(=O)NC[C@@H](NC(=O)[C@@H](N)Cc1c[nH]cn1)C(C)C)[C@@H](C)O)[C@@H](C)O)C(C)C)C(=O)N[C@@H](C)C(=O)N[C@@H](Cc1c[nH]c2ccccc12)C(=O)N[C@@H](CC(C)C)C(=O)N[C@H](C(=O)N[C@@H](CCCCN)C(=O)NCC(=O)N[C@@H](CCCNC(=N)N)C(=O)NCC(N)=O)C(C)C [compound 8]
half-life at 5 µM [2]: 18 min
loss in potency relative to 3 (fold) (mouse GLP-1 receptor [3]): > 1000 fold
Potency (%), Table S1 (mouse GLP-1 receptor [3]): < 0.01%
EC50 (mouse GLP-1 receptor [3]): > 10000 nM
EC50 (GLP-1R): 2.12 nM
